Experimental data from US20230151025A1, “SUBSTITUTED THIAZOLOPYRIDINES, SALTS THEREOF AND THEIR USE AS HERBICIDALLY ACTIVE SUBSTANCES” (Bayer Aktiengesellschaft, priority 2020, published 2023).

What was measured:
Assay type in all cases: in vivo
Veronica persica (VERPE) [1] = experiment: Herbicidal post-emergence action (B), 1280 g/ha
From the text: (§1) ABUTH: Abutilon theophrasti AGSTE: Agrostis tenuis ALOMY: Alopecurus myosuroides AMARE Amaranthus retroflexus DIGSA: Digitaria sanguinalis ECHCG: Echinochloa crus-galli KCHSC: Kochia scoparia LOLRI: Lolium rigidum MATIN: Matricaria inodora POAAN: Poa annua POLCO: Polygonum convolvulus SETVI: Setaria viridis STEME: Stellaria media VERPE: Veronica persica VIOTR: Viola tricolor
(§2) Seeds of mono- and dicotyledonous weed plants were placed in plastic pots in sandy loam soil (doubly sown with in each case one species of mono- or dicotyledonous weed plants per pot), covered with soil and cultivated in a greenhouse under controlled growth conditions. 2 to 3 weeks after sowing, the test plants were treated at the one-leaf stage. The compounds of the invention, formulated in the form of wettable powders (WP) or as emulsion concentrates (EC), were applied onto the green parts of the plants as aqueous suspension or emulsion with addition of 0.5% additive at a water application rate of 600 liters per hectare (converted). After the test plants had been kept in the greenhouse under optimum growth conditions for about 3 weeks, the activity of the preparations was rated visually in comparison to untreated controls. For example, 100% activity=the plants have died, 0% activity=like control plants.
(§3) Tables B1 to B12, below, show the effects of selected compounds of the general formula (I) according to table 1 on various harmful plants and an application rate corresponding to 1280 g/ha obtained by the experimental procedure mentioned above.

[2] = tested on: Abutilon theophrasti (ABUTH); experiment: Herbicidal post-emergence action (B), 1280 g/ha; details: rated visually after about 3 weeks vs untreated controls
From the text: as §1, §2, §3

[3] = tested on: Amaranthus retroflexus (AMARE); experiment: Herbicidal post-emergence action (B), 1280 g/ha; details: rated visually after about 3 weeks vs untreated controls
From the text: as §1, §2, §3

Stellaria media (STEME) [4] = experiment: Herbicidal post-emergence action (B), 1280 g/ha
From the text: as §1, §2, §3

[5] = tested on: Alopecurus myosuroides (ALOMY); experiment: Herbicidal pre-emergence action (A), 1280 g/ha; details: visual grading after ca. 3 weeks vs untreated controls, 100% = plants have died off, 0% = as control plants
From the text: as §1
(§4) Seeds of mono- and dicotyledonous weed plants were sown in plastic pots (double sowings with one species of mono- and one species of dicotyledonous weed plants per pot), in sandy loam, and covered with soil. The compounds according to the invention, formulated in the form of wettable powders (WP) or as emulsifiable concentrates (EC), were applied to the surface of the covering soil as aqueous suspension or emulsion, with the addition of 0.5% of an additive, at an application rate of 600 l of water per hectare (converted). Following treatment, the pots were placed in a greenhouse and kept under optimum growth conditions for the test plants. The visual grading of the damage to the test plants was carried out after ca. 3 weeks in comparison to untreated controls (herbicidal effect in percent (%): 100% effect=plants have died off, 0% effect=as control plants).
(§5) Tables A1 to A12, below, show the effects of selected compounds of the general formula (I) according to table 1 on various harmful plants and an application rate corresponding to 1280 g/ha obtained by the experimental procedure mentioned above.

Poa annua (POAAN) [6] = experiment: Herbicidal pre-emergence action (A), 1280 g/ha; details: visual grading after ca. 3 weeks vs untreated controls, 100% = plants have died off, 0% = as control plants
From the text: as §1, §4, §5

[7] = tested on: Kochia scoparia (KCHSC; Bassia scoparia); experiment: Herbicidal post-emergence action (B), 1280 g/ha
From the text: as §1, §2, §3

[8] = tested on: Alopecurus myosuroides (ALOMY); experiment: Herbicidal post-emergence action (B), 1280 g/ha; details: rated visually after about 3 weeks vs untreated controls
From the text: as §1, §2, §3

Setaria viridis (SETVI) = experiment: Herbicidal pre-emergence action (A), 1280 g/ha; details: visual grading after ca. 3 weeks vs untreated controls
From the text: as §1, §4, §5

[9] = tested on: Amaranthus retroflexus (AMARE); experiment: Herbicidal pre-emergence action (A), 1280 g/ha; details: visual grading after ca. 3 weeks vs untreated controls
From the text: as §1, §4, §5

Veronica persica (VERPE) [10] = experiment: Herbicidal pre-emergence action (A), 1280 g/ha; details: visual grading after ca. 3 weeks vs untreated controls
From the text: as §1, §4, §5

Lolium rigidum (LOLRI) = experiment: Herbicidal pre-emergence action (A), 1280 g/ha; details: visual grading after ca. 3 weeks vs untreated controls, 100% = plants have died off, 0% = as control plants
From the text: as §1, §4, §5

[11] = tested on: Kochia scoparia (KCHSC; Bassia scoparia); experiment: Herbicidal pre-emergence action (A), 1280 g/ha; details: visual grading after ca. 3 weeks vs untreated controls
From the text: as §1, §4, §5

Stellaria media (STEME) [12] = experiment: Herbicidal pre-emergence action (A), 1280 g/ha; details: visual grading after ca. 3 weeks vs untreated controls
From the text: as §1, §4, §5

[13] = tested on: Echinochloa crus-galli (ECHCG); experiment: Herbicidal pre-emergence action (A), 1280 g/ha; details: visual grading after ca. 3 weeks vs untreated controls, 100% = plants have died off, 0% = as control plants
From the text: as §1, §4, §5

[14] = tested on: Matricaria inodora (MATIN); experiment: Herbicidal pre-emergence action (A), 1280 g/ha; details: visual grading after ca. 3 weeks vs untreated controls
From the text: as §1, §4, §5

Poa annua (POAAN) [15] = experiment: Herbicidal post-emergence action (B), 1280 g/ha; details: rated visually after about 3 weeks vs untreated controls
From the text: as §1, §2, §3

[16] = tested on: Digitaria sanguinalis (DIGSA); experiment: Herbicidal pre-emergence action (A), 1280 g/ha; details: visual grading after ca. 3 weeks vs untreated controls, 100% = plants have died off, 0% = as control plants
From the text: as §1, §4, §5

| Compound | herbicidal effect VERPE (Veronica persica (VERPE) [1]) | herbicidal activity ABUTH [2] | herbicidal activity AMARE [3] | herbicidal effect STEME (Stellaria media (STEME) [4]) | ALOMY, herbicidal effect in percent (%) [5] | POAAN, herbicidal effect in percent (%) (Poa annua (POAAN) [6]) | herbicidal effect KCHSC [7] | herbicidal activity ALOMY [8] | herbicidal effect SETVI (Setaria viridis (SETVI)) | herbicidal effect AMARE [9] | herbicidal effect VERPE (Veronica persica (VERPE) [10]) | LOLRI, herbicidal effect in percent (%) (Lolium rigidum (LOLRI)) | herbicidal effect KCHSC [11] | herbicidal effect STEME (Stellaria media (STEME) [12]) | ECHCG, herbicidal effect in percent (%) [13] | herbicidal effect MATIN [14] | herbicidal activity POAAN (Poa annua (POAAN) [15]) | DIGSA, herbicidal effect in percent (%) [16] |
| --- | --- | --- | --- | --- | --- | --- | --- | --- | --- | --- | --- | --- | --- | --- | --- | --- | --- | --- |
| Cc1c(Br)c(-c2ccccc2F)nc2ncsc12 [Example I-186] | 90% | 90% | 100% | 90% |  |  |  |  |  |  |  |  |  |  |  |  |  |  |
| CCOC(=O)C(C#N)c1nc2nc(-c3ccccc3F)c(Br)cc2s1 (centres unmarked) [Example I-086] |  |  | 100% |  | 90% | 90% | 90% | 100% |  |  |  |  |  |  |  |  |  |  |
| Cc1cc2scnc2nc1-c1cccnc1C [Example I-130] | 90% | 90% |  |  |  | 100% | 90% |  | 100% | 90% |  |  |  |  |  |  |  |  |
| N#Cc1nc2nc(-c3ccccc3F)c(Br)cc2s1 [Example I-070, 6-bromo-5-(2-fluorophenyl)thiazolo[4,5-b]pyridine-2-carbonitrile] |  | 90% | 100% |  |  |  |  |  | 100% | 100% |  |  |  |  |  |  |  |  |
| N#CCc1nc2nc(-c3ccccc3F)c(Br)cc2s1 [Example I-071] | 90% |  | 90% | 90% |  | 100% | 90% | 90% | 90% | 90% | 90% | 100% | 90% | 90% | 100% |  |  |  |
| Cc1cc2sc(S)nc2nc1-c1ccccc1Cl [Example I-169] | 90% | 100% | 90% |  |  | 100% | 90% |  | 90% | 90% |  |  | 90% |  | 90% |  |  |  |
| Cc1cc(C)c(-c2nc3ncsc3cc2C)s1 [Example I-195] |  |  |  |  |  | 100% | 90% | 100% | 100% |  | 90% | 100% | 90% | 90% | 100% | 90% | 100% |  |
| Cc1cc2sc(S)nc2nc1-c1ccccc1F [Example I-155] | 90% |  | 100% |  |  | 100% | 100% |  | 100% | 90% | 90% |  | 90% |  | 100% |  |  | 90% |
